For the experiment, the system named is CD2F1 mice, L1210 leukemia ip, survival T/C. Kind of experiment: NCI In Vivo Anticancer Drug Screen. Data for tumor model L1210 Leukemia (intraperitoneal) in CD2F1 (CDF1) mice. The following applies: higher = longer survival. The essentials: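 Ratio T/C, where T is the treated-group value and C the vehicle-dosed control value, from mice implanted with a transplantable tumor.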

The mark [1] stands for this setting: endpoint: mean survival time, dose: 100.0 mg/kg/injection, schedule: Q01DX001 (ip), vehicle: saline with Tween-80.
[2] abbreviates: endpoint: mean survival time, dose: 200.0 mg/kg/injection, schedule: Q01DX001 (ip), vehicle: saline with Tween-80.
[3] abbreviates: endpoint: mean survival time, dose: 400.0 mg/kg/injection, schedule: Q01DX001 (ip), vehicle: saline with Tween-80.

The structures appear in SMILES notation. Where “and” joins values, the source holds several entries; their conditions need not be identical. Equal values may be shown once. Toxic doses and inconclusive results are not listed.

With `COc1cccc2c1C(=O)c1c(O)c3c(c(O)c1C2=O)C[C@@](O)(C(=O)CO)C[C@@H]3OC1CC(OC(C)=O)C(OC(C)=O)C(C)O1` (some centres undefined), the T/C (endpoint: mean survival time, dose: 1.56 mg/kg/injection, schedule: Q01DX009 (ip), vehicle: distilled water + Tween-80) was 115 % of control; the T/C (endpoint: mean survival time, dose: 3.12 mg/kg/injection, schedule: Q01DX009 (ip), vehicle: distilled water + Tween-80) is 122 % of control; the T/C (endpoint: mean survival time, dose: 6.25 mg/kg/injection, schedule: Q01DX009 (ip), vehicle: distilled water + Tween-80) is 167 % of control; the T/C (endpoint: mean survival time, dose: 12.5 mg/kg/injection, schedule: Q01DX009 (ip), vehicle: distilled water + Tween-80) was 153 % of control and 203 % of control; the T/C (endpoint: mean survival time, dose: 25.0 mg/kg/injection, schedule: Q01DX009 (ip), vehicle: distilled water + Tween-80) was 93 % of control and 100 % of control; the T/C (endpoint: median survival time, dose: 1.56 mg/kg/injection, schedule: Q01DX009 (ip), vehicle: distilled water + Tween-80) was 113 % of control. For the same compound, the T/C is, setting by setting: (endpoint: median survival time, dose: 6.25 mg/kg/injection, schedule: Q01DX009 (ip), vehicle: distilled water + Tween-80) 158 % of control and 176 % of control; (endpoint: median survival time, dose: 12.5 mg/kg/injection, schedule: Q01DX009 (ip), vehicle: distilled water + Tween-80) 226 % of control and 250 % of control; (endpoint: median survival time, dose: 25.0 mg/kg/injection, schedule: Q01DX009 (ip), vehicle: distilled water + Tween-80) 120 % of control and 95 % of control.
`CCOC(=O)C(Cc1ccccc1OC)P(=O)(OCC)OCC` (centres undefined): the T/C runs as follows: (endpoint: mean survival time, dose: 75.0 mg/kg/injection, schedule: Q01DX001 (ip), vehicle: saline) 100 % of control; (endpoint: mean survival time, dose: 150.0 mg/kg/injection, schedule: Q01DX001 (ip), vehicle: saline) 94 % of control; (endpoint: mean survival time, dose: 300.0 mg/kg/injection, schedule: Q01DX001 (ip), vehicle: saline) 96 % of control.
`O=C(Cc1ccccc1)C(O)c1ccccc1` (centres undefined): the T/C was 86 % of control under setting [1], 92 % of control under setting [2] and 87 % of control under setting [3].
As for `COc1cc(N2C(N)=NC(N)=NC2(C)C)cc(OC)c1OC`, the T/C (endpoint: mean survival time, dose: 6.25 mg/kg/injection, schedule: Q04DX003 (ip), vehicle: saline) is 97 % of control; the T/C (endpoint: mean survival time, dose: 12.5 mg/kg/injection, schedule: Q04DX003 (ip), vehicle: saline) was 102 % of control; the T/C (endpoint: mean survival time, dose: 25.0 mg/kg/injection, schedule: Q04DX003 (ip), vehicle: saline) is 102 % of control.
As to `O=C(Nc1ccc(S(=O)(=O)N2CCCCC2)cc1)OC(c1ccccc1)c1ccccc1`, the T/C (endpoint: mean survival time, dose: 5.0 mg/kg/injection, schedule: Q01DX001 (ip), vehicle: other) was 103 % of control; the T/C (endpoint: mean survival time, dose: 10.0 mg/kg/injection, schedule: Q01DX001 (ip), vehicle: other) was 100 % of control; the T/C (endpoint: mean survival time, dose: 20.0 mg/kg/injection, schedule: Q01DX001 (ip), vehicle: other) was 93 % of control; the T/C (endpoint: mean survival time, dose: 40.0 mg/kg/injection, schedule: Q01DX001 (ip), vehicle: other) is 100 % of control; the T/C (endpoint: mean survival time, dose: 80.0 mg/kg/injection, schedule: Q01DX001 (ip), vehicle: other) was 102 % of control.
Consider `CCOc1nc2nc[nH]c(=O)c2cc1C#N`, for which the T/C is, setting by setting: (endpoint: mean survival time, dose: 12.5 mg/kg/injection, schedule: Q04DX002 (ip), vehicle: saline with Tween-80) 90 % of control; (endpoint: mean survival time, dose: 25.0 mg/kg/injection, schedule: Q04DX002 (ip), vehicle: saline with Tween-80) 93 % of control; (endpoint: mean survival time, dose: 50.0 mg/kg/injection, schedule: Q04DX002 (ip), vehicle: saline with Tween-80) 104 % of control; under setting [1], 107 % of control; under setting [2], 95 % of control.
Take `FCCc1ccccc1`: the T/C (endpoint: mean survival time, dose: 50.0 mg/kg/injection, schedule: Q04DX003 (ip), vehicle: saline sonified) is 98 % of control; the T/C under setting [1] was 97 % of control and 94 % of control; the T/C (endpoint: mean survival time, dose: 100.0 mg/kg/injection, schedule: Q04DX003 (ip), vehicle: saline sonified) is 98 % of control; the T/C under setting [2] is 95 % of control; the T/C (endpoint: mean survival time, dose: 200.0 mg/kg/injection, schedule: Q04DX003 (ip), vehicle: saline sonified) was 98 % of control; the T/C under setting [3] was 103 % of control and 94 % of control.
For `NC(=S)N/N=C/c1ncccc1O`, the T/C is 117 % of control (endpoint: mean survival time, dose: 3.13 mg/kg/injection, schedule: Q03HX024 (ip), vehicle: saline); 102 % of control (endpoint: mean survival time, dose: 50.0 mg/kg/injection, schedule: Q03HX024 (ip), vehicle: saline); 156 % of control (endpoint: median survival time, dose: 21.8 mg/kg/injection, schedule: Q03HX008 (ip), vehicle: suspension in saline); 164 % of control (endpoint: median survival time, dose: 32.5 mg/kg/injection, schedule: Q03HX008 (ip), vehicle: suspension in saline); 121 % of control (endpoint: median survival time, dose: 45.0 mg/kg/injection, schedule: Q04DX003 (ip), vehicle: suspension in saline); 174 % of control (endpoint: median survival time, dose: 48.5 mg/kg/injection, schedule: Q03HX008 (ip), vehicle: suspension in saline). In addition, the T/C was 156 % of control (endpoint: median survival time, dose: 50.0 mg/kg/injection, schedule: Q01DX005 (ip), vehicle: saline); 109 % of control (endpoint: median survival time, dose: 72.4 mg/kg/injection, schedule: Q03HX008 (ip), vehicle: suspension in saline); 122 % of control (endpoint: median survival time, dose: 90.0 mg/kg/injection, schedule: Q04DX003 (ip), vehicle: suspension in saline); 150 % of control (endpoint: median survival time, dose: 100.0 mg/kg/injection, schedule: Q01DX005 (ip), vehicle: suspension in saline); 152 % of control (endpoint: median survival time, dose: 108.0 mg/kg/injection, schedule: Q04DX003 (ip), vehicle: suspension in saline); 86 % of control (endpoint: median survival time, dose: 180.0 mg/kg/injection, schedule: Q03HX024 (ip), vehicle: saline). Besides, the T/C runs as follows: (endpoint: median survival time, dose: 200.0 mg/kg/injection, schedule: Q01DX005 (ip), vehicle: suspension in saline) 117 % of control; (endpoint: median survival time, dose: 241.0 mg/kg/injection, schedule: Q04DX003 (ip), vehicle: suspension in saline) 151 % of control; (endpoint: median survival time, dose: 360.0 mg/kg/injection, schedule: Q04DX003 (ip), vehicle: suspension in saline) 161 % of control; (endpoint: median survival time, dose: 537.0 mg/kg/injection, schedule: Q04DX003 (ip), vehicle: suspension in saline) 109 % of control; (endpoint: median survival time, dose: 720.0 mg/kg/injection, schedule: Q04DX003 (ip), vehicle: suspension in saline) 119 % of control.
Consider `NC(=S)c1ncn(C2OC(COC=O)C(OC=O)C2OC=O)c1NC=O` (centres undefined), for which the T/C is, setting by setting: (endpoint: mean survival time, dose: 50.0 mg/kg/injection, schedule: Q04DX002 (ip), vehicle: Klucel (hydroxypropylcellulose) (HPC)) 121 % of control; (endpoint: mean survival time, dose: 100.0 mg/kg/injection, schedule: Q01DX009 (ip), vehicle: Klucel (hydroxypropylcellulose) (HPC)) 151 % of control; (endpoint: mean survival time, dose: 100.0 mg/kg/injection, schedule: Q04DX002 (ip), vehicle: saline with Tween-80) 166 % of control; (endpoint: mean survival time, dose: 200.0 mg/kg/injection, schedule: Q01DX009 (ip), vehicle: Klucel (hydroxypropylcellulose) (HPC)) 117 % of control; (endpoint: mean survival time, dose: 200.0 mg/kg/injection, schedule: Q04DX002 (ip), vehicle: saline with Tween-80) 158 % of control; (endpoint: mean survival time, dose: 400.0 mg/kg/injection, schedule: Q04DX002 (ip), vehicle: Klucel (hydroxypropylcellulose) (HPC)) 159 % of control. Further, the T/C (endpoint: mean survival time, dose: 400.0 mg/kg/injection, schedule: Q04DX002 (ip), vehicle: saline with Tween-80) was 154 % of control; the T/C (endpoint: median survival time, dose: 12.5 mg/kg/injection, schedule: Q01DX009 (ip), vehicle: Klucel (hydroxypropylcellulose) (HPC)) was 111 % of control; the T/C (endpoint: median survival time, dose: 25.0 mg/kg/injection, schedule: Q01DX009 (ip), vehicle: Klucel (hydroxypropylcellulose) (HPC)) is 122 % of control; the T/C (endpoint: median survival time, dose: 200.0 mg/kg/injection, schedule: Q01DX009 (ip), vehicle: Klucel (hydroxypropylcellulose) (HPC)) was 154 % of control and 166 % of control.
On to `CC1(C)CCCC2(C)C1C(=O)C=CC2(O)CCc1ccoc1.CC12CCc3ccoc3C1CCC1(C(=O)O)C(CO)=CCCC12.[Ag]` (centres undefined), for which the T/C (endpoint: mean survival time, dose: 75.0 mg/kg/injection, schedule: Q04DX002 (ip), vehicle: other) is 103 % of control; the T/C (endpoint: mean survival time, dose: 150.0 mg/kg/injection, schedule: Q04DX002 (ip), vehicle: other) was 115 % of control; the T/C (endpoint: mean survival time, dose: 300.0 mg/kg/injection, schedule: Q04DX002 (ip), vehicle: other) was 107 % of control.
Consider `CC1=C(C)CS(=O)(=O)N(c2ccccc2)C1`, for which the T/C was 101 % of control under setting [1]; 98 % of control (endpoint: mean survival time, dose: 100.0 mg/kg/injection, schedule: Q01DX009 (ip), vehicle: saline with Tween-80); 98 % of control under setting [2]; 95 % of control (endpoint: mean survival time, dose: 200.0 mg/kg/injection, schedule: Q01DX009 (ip), vehicle: saline with Tween-80); 86 % of control under setting [3]; 95 % of control (endpoint: mean survival time, dose: 400.0 mg/kg/injection, schedule: Q01DX009 (ip), vehicle: saline with Tween-80).
In the case of `OCC(F)(F)C(F)(F)C(F)(F)F`, the T/C is 95 % of control (endpoint: mean survival time, dose: 75.0 mg/kg/injection, schedule: Q01DX009 (ip), vehicle: saline); 95 % of control (endpoint: mean survival time, dose: 150.0 mg/kg/injection, schedule: Q01DX009 (ip), vehicle: saline); 103 % of control (endpoint: mean survival time, dose: 300.0 mg/kg/injection, schedule: Q01DX009 (ip), vehicle: saline); 86 % of control (endpoint: mean survival time, dose: 600.0 mg/kg/injection, schedule: Q01DX009 (ip), vehicle: saline).
